Reference: ChEMBL document CHEMBL3407375, “Substituted pyrrolidin-2-ones: Centrally acting orexin receptor antagonists promoting sleep. Part 2” (Bioorg Med Chem Lett, 2015)

Assays:
[1] = Intrinsic metabolic clearance in human liver microsomes at 1 uM; format: ADME; conditions: read-out: CLH
[2] = molecular target: Orexin/Hypocretin receptor type 1 (Homo sapiens, UniProt O43613); experiment: Antagonist activity at human orexin 1 receptor expressed in CHO cells assessed as inhibition of orexin-A-induced calcium mobilization by FLIPR assay; format: functional, cell-based
Orexin/Hypocretin receptor type 1, sequence (O43613 whole entry, looked up): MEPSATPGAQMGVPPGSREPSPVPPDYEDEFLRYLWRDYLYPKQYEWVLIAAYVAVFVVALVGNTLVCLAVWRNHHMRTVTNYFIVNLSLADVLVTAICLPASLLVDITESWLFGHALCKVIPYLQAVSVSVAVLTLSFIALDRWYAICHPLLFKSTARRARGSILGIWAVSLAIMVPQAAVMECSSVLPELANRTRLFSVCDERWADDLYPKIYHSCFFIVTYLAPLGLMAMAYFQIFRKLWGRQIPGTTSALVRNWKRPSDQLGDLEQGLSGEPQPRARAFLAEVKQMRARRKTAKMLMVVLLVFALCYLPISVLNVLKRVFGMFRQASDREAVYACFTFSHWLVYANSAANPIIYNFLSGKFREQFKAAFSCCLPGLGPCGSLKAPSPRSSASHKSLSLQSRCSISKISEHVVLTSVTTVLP

Cytochrome P450 3A4 [3] = molecular target: T1, Cytochrome P450 3A4 (Homo sapiens, UniProt P08684); experiment: Inhibition of CYP3A4 (unknown origin) using testosterone as marker substrate; format: ADME
T1 sequence (P08684 whole entry): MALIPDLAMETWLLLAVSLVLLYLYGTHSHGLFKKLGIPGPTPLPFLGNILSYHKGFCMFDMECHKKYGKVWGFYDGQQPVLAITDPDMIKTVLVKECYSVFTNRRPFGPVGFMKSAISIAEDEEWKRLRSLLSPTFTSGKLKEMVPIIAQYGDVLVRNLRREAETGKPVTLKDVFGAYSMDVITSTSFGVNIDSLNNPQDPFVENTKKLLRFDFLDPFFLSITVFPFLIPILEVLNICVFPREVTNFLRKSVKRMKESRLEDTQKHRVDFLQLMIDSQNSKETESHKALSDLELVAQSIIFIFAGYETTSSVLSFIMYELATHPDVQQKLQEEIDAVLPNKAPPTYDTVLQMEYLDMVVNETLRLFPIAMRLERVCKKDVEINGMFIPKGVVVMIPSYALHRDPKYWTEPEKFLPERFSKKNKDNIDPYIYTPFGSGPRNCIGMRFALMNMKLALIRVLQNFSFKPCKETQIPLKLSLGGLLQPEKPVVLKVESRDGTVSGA

Orexin receptor type 2 = Orexin receptor type 2 (Homo sapiens, UniProt O43614); experiment: Antagonist activity at human orexin 2 receptor expressed in CHO cells assessed as inhibition of orexin-A-induced calcium mobilization by FLIPR assay; format: functional, cell-based
Orexin receptor type 2, sequence (O43614 whole entry, looked up): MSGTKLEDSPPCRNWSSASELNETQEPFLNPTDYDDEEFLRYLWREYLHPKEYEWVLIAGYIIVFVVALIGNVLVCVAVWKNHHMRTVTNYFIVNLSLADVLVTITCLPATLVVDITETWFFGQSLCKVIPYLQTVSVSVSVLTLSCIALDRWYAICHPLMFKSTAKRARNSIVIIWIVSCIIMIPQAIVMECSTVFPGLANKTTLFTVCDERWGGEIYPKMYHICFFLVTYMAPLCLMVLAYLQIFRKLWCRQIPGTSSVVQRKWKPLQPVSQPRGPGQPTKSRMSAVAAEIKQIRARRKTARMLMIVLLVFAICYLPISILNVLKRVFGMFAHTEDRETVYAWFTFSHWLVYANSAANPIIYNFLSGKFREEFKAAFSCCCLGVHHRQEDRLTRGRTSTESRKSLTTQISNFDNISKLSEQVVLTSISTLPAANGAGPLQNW

Rattus norvegicus [4] = experiment: Induction of sleep in Wistar rat assessed as time spent in REM sleep at 100 mg/kg, po after 12 hrs (reference value: 4.7%); format: functional
Rattus norvegicus [5] = experiment: Induction of sleep in Wistar rat assessed as time spent in non-REM sleep at 100 mg/kg, po after 12 hrs (reference value: 32.1%); format: functional
Rattus norvegicus [6] = experiment: Induction of sleep in Wistar rat assessed as time spent in quiet wake at 100 mg/kg, po after 12 hrs (reference value: 32.8%); format: functional
Rattus norvegicus [7] = experiment: Induction of sleep in Wistar rat assessed as decrease in home cage activity at 100 mg/kg, po after 12 hrs relative to control; format: functional
Rattus norvegicus [8] = experiment: Induction of sleep in Wistar rat assessed as time spent in active wake at 100 mg/kg, po after 12 hrs (reference value: 30%); format: functional
Cytochrome P450 2D6 [9] = molecular target: T2, Cytochrome P450 2D6 (Homo sapiens, UniProt P10635); experiment: Inhibition of CYP2D6 (unknown origin); format: ADME
T2 sequence (P10635 whole entry): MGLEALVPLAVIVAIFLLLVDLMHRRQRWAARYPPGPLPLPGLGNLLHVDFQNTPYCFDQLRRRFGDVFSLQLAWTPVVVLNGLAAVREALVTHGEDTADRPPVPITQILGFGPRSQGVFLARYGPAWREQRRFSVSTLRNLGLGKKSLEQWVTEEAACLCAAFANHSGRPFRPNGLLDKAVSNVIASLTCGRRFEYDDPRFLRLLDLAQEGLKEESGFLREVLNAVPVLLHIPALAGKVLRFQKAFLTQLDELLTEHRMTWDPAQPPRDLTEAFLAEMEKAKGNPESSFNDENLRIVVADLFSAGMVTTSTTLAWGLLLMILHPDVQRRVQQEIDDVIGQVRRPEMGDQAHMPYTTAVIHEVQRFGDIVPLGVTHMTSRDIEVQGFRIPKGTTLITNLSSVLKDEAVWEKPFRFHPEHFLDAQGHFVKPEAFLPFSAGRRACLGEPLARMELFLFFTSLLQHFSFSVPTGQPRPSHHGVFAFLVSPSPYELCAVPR

[10] = Intrinsic metabolic clearance in rat liver microsomes at 1 uM; format: ADME; conditions: read-out: CLH
Cytochrome P450 3A4 [11] = molecular target: T1, Cytochrome P450 3A4; experiment: Time dependent inhibition of CYP3A4 (unknown origin); format: ADME
Rattus norvegicus [12] = experiment: Induction of sleep in Wistar rat assessed as time spent in non-REM sleep at 100 mg/kg, po after 12 hrs (reference value: 29.8%); format: functional
Rattus norvegicus [13] = experiment: Induction of sleep in Wistar rat assessed as time spent in active wake at 100 mg/kg, po after 12 hrs (reference value: 44.6%); format: functional
Cytochrome P450 3A4 [14] = molecular target: T1, Cytochrome P450 3A4; experiment: Inhibition of CYP3A4 (unknown origin); format: ADME
[15] = Drug level in Wistar rat brain measured per gram of tissue at 100 mg/kg, po after 3 hrs; format: ADME, organism-based; parameters: dose 100 mg/kg, route oral; conditions: read-out: Drug uptake
Rattus norvegicus [16] = experiment: Induction of sleep in Wistar rat assessed as time spent in quiet wake at 100 mg/kg, po after 12 hrs (reference value: 19.5%); format: functional
Rattus norvegicus [17] = experiment: Induction of sleep in Wistar rat assessed as decrease in time spent in active wake at 100 mg/kg, po after 12 hrs relative to control; format: functional
Rattus norvegicus [18] = experiment: Induction of sleep in Wistar rat assessed as increase in time spent in REM sleep at 100 mg/kg, po after 12 hrs relative to control; format: functional
MDR1 [19] = experiment: Passive apparent permeability from apical to basolateral side in MDCK cells expressing human MDR1; format: ADME, cell-based, Canis lupus familiaris; conditions: dog
[20] = Ratio of drug level in brain to plasma in Wistar rat at 100 mg/kg, po afer 3 hrs; format: ADME, organism-based; parameters: dose 100 mg/kg, route oral; conditions: read-out: BPR
MDR1 [21] = experiment: Passive apparent permeability from basolateral to apical side in MDCK cells expressing human MDR1; format: ADME, cell-based, Canis lupus familiaris; conditions: dog
Cytochrome P450 2C9 [22] = molecular target: T3, Cytochrome P450 2C9 (Homo sapiens, UniProt P11712); experiment: Inhibition of CYP2C9 (unknown origin); format: ADME
T3 sequence (P11712 whole entry): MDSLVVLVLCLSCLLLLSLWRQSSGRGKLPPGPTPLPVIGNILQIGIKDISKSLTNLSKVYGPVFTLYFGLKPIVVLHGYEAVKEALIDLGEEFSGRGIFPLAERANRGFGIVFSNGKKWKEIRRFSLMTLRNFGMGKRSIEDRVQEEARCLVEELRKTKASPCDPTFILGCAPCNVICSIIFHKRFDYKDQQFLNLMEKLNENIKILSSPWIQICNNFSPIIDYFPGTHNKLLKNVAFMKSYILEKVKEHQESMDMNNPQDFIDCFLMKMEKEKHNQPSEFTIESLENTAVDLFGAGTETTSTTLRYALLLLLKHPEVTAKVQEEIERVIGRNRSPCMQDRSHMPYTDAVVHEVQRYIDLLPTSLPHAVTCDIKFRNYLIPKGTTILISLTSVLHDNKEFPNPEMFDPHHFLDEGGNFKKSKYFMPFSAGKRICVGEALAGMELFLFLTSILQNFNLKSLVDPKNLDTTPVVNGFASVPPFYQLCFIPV

Rattus norvegicus [23] = experiment: Induction of sleep in Wistar rat assessed as increase in time spent in non-REM sleep at 100 mg/kg, po after 12 hrs relative to control; format: functional
Cytochrome P450 2D6 [24] = molecular target: T2, Cytochrome P450 2D6; experiment: Time dependent inhibition of CYP2D6 (unknown origin); format: ADME
Rattus norvegicus [25] = experiment: Induction of sleep in Wistar rat assessed as time spent in REM sleep at 100 mg/kg, po after 12 hrs (reference value: 6%); format: functional
Cytochrome P450 2C9 [26] = molecular target: T3, Cytochrome P450 2C9; experiment: Time dependent inhibition of CYP2C9 (unknown origin); format: ADME
[27] = Plasma protein binding in Wistar rat at 100 mg/kg, po after 3 hrs; format: ADME, organism-based; parameters: dose 100 mg/kg, route oral; conditions: read-out: PPB
[28] = Drug level in Wistar rat plasma at 100 mg/kg, po after 3 hrs; format: ADME, organism-based; parameters: dose 100 mg/kg, route oral

Row | SMILES | microsomal CLint at 1 µM [1] [µL/min/mg] | IC50 [2] [µM] | IC50 (Cytochrome P450 3A4 [3]) [µM] | further results
1 | COc1cccc(OC)c1[C@@H]1C[C@H](Cl)C(=O)N1Cc1ccc(OC(F)(F)F)cc1 (racemic) | 277 | 0.041 | 6.6 | 
2 | COc1cccc(OC)c1[C@@H]1C[C@@H](N(C)C)C(=O)N1Cc1ccc(OC(F)(F)F)cc1 (racemic) |  | > 10 |  | IC50 (Orexin receptor type 2): 3.62 µM
3 | CCO[C@H]1C[C@@H](c2c(OC)cccc2OC)N(Cc2ccc(OC(F)(F)F)cc2)C1=O (racemic) |  | > 10 |  | IC50 (Orexin receptor type 2): 3.96 µM
4 | CNC(=O)[C@@H](c1ccccc1)N1CCc2cc(OC)c(OC)cc2[C@@H]1CCc1ccc(C(F)(F)F)cc1 [ALMOREXANT] |  |  |  | Activity (Rattus norvegicus [4]): 6.5%; Activity (Rattus norvegicus [5]): 38.5%; Activity (Rattus norvegicus [6]): 31%; inhibition in vivo at 100 mg/kg (Rattus norvegicus [7]): 43%; Activity (Rattus norvegicus [8]): 24%
5 | COc1cccc(F)c1[C@@H]1C[C@H](F)C(=O)N1Cc1ccc2oc3ccccc3c2c1 (racemic) | 349 |  | 21 | 
6 | COc1cccc(OC)c1C1CC(F)(F)C(=O)N1Cc1ccc(OC(F)(F)F)cc1 (racemic) | 232 |  | 5.2 | 
7 | CN[C@H]1C[C@@H](c2c(OC)cccc2OC)N(Cc2ccc(OC(F)(F)F)cc2)C1=O (racemic) |  | > 10 |  | IC50 (Orexin receptor type 2): 5.78 µM
8 | CN[C@@H]1C[C@@H](c2c(OC)cccc2OC)N(Cc2ccc(OC(F)(F)F)cc2)C1=O (racemic) |  | 5.81 |  | IC50 (Orexin receptor type 2): 2.4 µM
9 | CC[C@H]1C[C@@H](c2c(OC)cccc2OC)N(Cc2ccc(OC(F)(F)F)cc2)C1=O (racemic) |  | 3.61 |  | 
10 | COc1cccc(OC)c1[C@@H]1C[C@H](OC)C(=O)N1Cc1ccc(OC(F)(F)F)cc1 (racemic) |  | 0.168 | 1.4 | 
11 | COc1cccc(OC)c1[C@@H]1C[C@H](N)C(=O)N1Cc1ccc(OC(F)(F)F)cc1 (racemic) |  | 9.49 |  | IC50 (Orexin receptor type 2): 7.03 µM
12 | COc1cccc(OC)c1[C@@H]1C[C@H](F)C(=O)N1Cc1ccc2oc3ccccc3c2c1 (racemic) | 363 |  | 8.8 | 
13 | COc1cccc(OC)c1[C@@H]1C[C@@H](C)C(=O)N1Cc1ccc(OC(F)(F)F)cc1 (racemic) | 257 |  |  | 
14 | COc1cccc(OC)c1[C@@H]1C[C@@H](Cl)C(=O)N1Cc1ccc(OC(F)(F)F)cc1 (racemic) |  | 0.563 |  | 
15 | COc1cccc(OC)c1C1CCC(=O)N1Cc1ccc2oc3ccccc3c2c1 (racemic) | 577 |  | 6.9 | 
16 | COc1cccc(F)c1[C@@H]1C[C@@H](O)C(=O)N1Cc1ccc2oc3ccccc3c2c1 | 102 |  | > 50 | IC50 (Cytochrome P450 2D6 [9]): 47 µM; microsomal CLint at 1 µM [10]: > 1250 µL/min/mg; TDI (Cytochrome P450 3A4 [11]): Not Active; Activity (Rattus norvegicus [12]): 34.4%; Activity (Rattus norvegicus [13]): 39.2%; IC50 (Cytochrome P450 3A4 [14]): > 50 µM; concentration at 3 h [15]: 585 ng/g; Activity (Rattus norvegicus [16]): 19.2%; inhibition in vivo at 100 mg/kg (Rattus norvegicus [17]): 20%; Activity (Rattus norvegicus [18]): 38%; Papp A→B (MDR1 [19]): 12.5 ×10⁻⁶ cm/s; Kp at 3 h [20]: 2.3; inhibition in vivo at 100 mg/kg (Rattus norvegicus [7]): 35%; Papp B→A (MDR1 [21]): 26.6 ×10⁻⁶ cm/s; IC50 (Cytochrome P450 2C9 [22]): 9.4 µM; Activity (Rattus norvegicus [23]): 20%; TDI (Cytochrome P450 2D6 [24]): Not Active; Activity (Rattus norvegicus [25]): 7.1%; TDI (Cytochrome P450 2C9 [26]): Not Active
17 | COc1cccc(OC)c1[C@@H]1C[C@@H](OC)C(=O)N1Cc1ccc(OC(F)(F)F)cc1 (racemic) |  | 6.94 |  | 
18 | COc1cccc(F)c1C1C[C@@H](O)C(=O)N1Cc1ccc2oc3ccccc3c2c1 (mixture of isomers) | 96 |  | 46 | 
19 | COc1cccc(OC)c1[C@@H]1C[C@H](F)C(=O)N1Cc1ccc(OC(F)(F)F)cc1 (racemic) | 233 |  |  | concentration at 3 h [15]: 270 ng/g; fraction unbound at 3 h [27]: 0.01; concentration at 3 h [28]: 87 ng/mL; Kp at 3 h [20]: 3.1
20 | COc1cccc(OC)c1[C@@H]1C[C@@H](O)C(=O)N1Cc1ccc(OC(F)(F)F)cc1 (racemic) | 142 |  | 25 | 
21 | COc1cccc(OC)c1[C@@H]1C[C@H](C)C(=O)N1Cc1ccc(OC(F)(F)F)cc1 (racemic) |  |  | 8.7 | 
22 | COc1cccc(OC)c1[C@@H]1C[C@H](Cl)C(=O)N1Cc1ccc2oc3ccccc3c2c1 (racemic) |  | 0.005 |  | 
23 | COc1cccc(OC)c1[C@@H]1C[C@H](N(C)C)C(=O)N1Cc1ccc(OC(F)(F)F)cc1 (racemic) |  | 8.3 |  | IC50 (Orexin receptor type 2): 8.72 µM
24 | COc1cccc(OC)c1[C@@H]1C[C@@H](O)C(=O)N1Cc1ccc2oc3ccccc3c2c1 (racemic) | 128 | 0.004 |  | 
25 | COc1cccc(OC)c1[C@@H]1C[C@@H](N)C(=O)N1Cc1ccc(OC(F)(F)F)cc1 (racemic) |  | 2.05 |  | IC50 (Orexin receptor type 2): 1.98 µM
